From PubChem BioAssay AID449750 (Broad Institute, 2010)
Active and inactive are the calls of the source. No rule for the calls is given here.

Assay: non-covalent RecA intein splicing inhibitors, dose response, biochemical, cell-free, fluorescence, secondary screen (AID 449750)

COc1ccccc1CN1CCSCC1
AC50: > 38 µM (inactive)

Cc1noc2ncnc(Sc3ccccc3Cl)c12
AC50: > 38 µM (inactive)

O=[N+]([O-])c1cc(O)c2ncccc2c1
AC50: 8.43 µM

CC1=NN(Cc2ccccc2)C(=O)C1C(c1ccncc1)C(C#N)C#N (stereo not drawn)
AC50: > 38 µM (inactive)

COCc1[nH]nc2c1C1(CCSCC1)C(C#N)=C(N)O2
AC50: > 38 µM (inactive)

CCOc1ccc(N2C(=O)/C(=C\c3ccc(O)c(OC)c3)S(=O)(=O)C2c2cccc([N+](=O)[O-])c2)cc1 (stereo not drawn)
AC50: > 38 µM (inactive)

O=[N+]([O-])c1ccc(Oc2cccc(Br)c2)c2ccncc12
AC50: 13.1 µM

CC(=O)Nc1ccc(NC(=O)CSc2ncc(C(=O)Nc3ccc(F)cc3)c(=O)n2C)cc1
AC50: > 38 µM (inactive)

O=c1cc(-c2ccc(Cl)cc2)[nH][nH]1
AC50: 14.2 µM

CSc1nnc(NC(=O)c2nc(S(=O)(=O)Cc3ccccc3F)ncc2Cl)s1
AC50: > 38 µM (inactive)

Cc1ccc(/C=C2\SC(N3CCN(C(c4ccccc4)c4ccccc4)CC3)=NC2=O)o1
AC50: 4.48 µM

O=C1/C(=C/Nc2cccc([N+](=O)[O-])c2)CCc2ccccc21
AC50: > 38 µM (inactive)

COc1ccc(/C=C2\SC(=S)N(CCCC(=O)Nc3ccc(O)cc3)C2=O)cc1
AC50: > 38 µM (inactive)

CCCC(=O)OCCNc1cc(Sc2nc3ccccc3[nH]2)c2nonc2c1[N+](=O)[O-]
AC50: > 38 µM (inactive)

Cc1ccc(-n2[nH]c(C)c(/C=N/NC(=O)c3ccc([N+](=O)[O-])cc3)c2=O)c(C)c1
AC50: 5.27 µM

O=C1C(Nc2ccc(O)cc2)=C/C(=N/S(=O)(=O)c2cccs2)c2ccccc21
AC50: 0.179 µM

Cc1ccc(C)c(S(=O)(=O)/N=C2\C=C(NS(=O)(=O)c3ccccc3)C(=O)c3ccccc32)c1
AC50: 2.79 µM

Oc1cccc(Nc2nc(-c3ccccc3Cl)nc3ccccc23)c1
AC50: > 38 µM (inactive)

N#Cc1ccc(-n2c(-c3ccccc3)nnc2-c2ccccc2)cc1C#N
AC50: > 38 µM (inactive)

COc1ccccc1-c1cc(C(F)(F)F)nc(S(=O)(=O)CCCC(=O)NCc2ccc(F)cc2)n1
AC50: 6.03 µM

O=C(Cc1ccccc1F)Nc1nc2ccccc2[nH]1
AC50: > 38 µM (inactive)

COc1cc(/C=N/NC(=O)CC2(C)OCCCO2)ccc1OCc1ccccc1
AC50: > 38 µM (inactive)

O=c1[nH]c(Nc2ccc(F)cc2)cc2ccccc12
AC50: 2.58 µM

CCCC1C(C#N)=C(N)Oc2n[nH]c(C(C)(C)C)c21 (stereo not drawn)
AC50: 1.7 µM

COc1ccc(/C=C2/C(=O)N(c3ccccc3)N=C2C)cc1Br
AC50: 5.66 µM

COc1ccc(-c2c(=O)n(OC)c3ccccc3[n+]2[O-])cc1OC
AC50: > 38 µM (inactive)

COC(=O)C1=C(C)NC(=S)NC1c1ccc(OC(=O)c2ccco2)cc1 (stereo not drawn)
AC50: > 38 µM (inactive)

CC(/C=N/NC(=O)Cc1cc(=O)[nH][nH]1)=C\c1ccccc1
AC50: 27 µM

O=C(O)COc1ccccc1C(Nc1cccnc1)c1cc(Cl)c2cccnc2c1O (stereo not drawn)
AC50: 6.01 µM

COc1cc(NCCCCCCCN)c2ncccc2c1
AC50: 13.6 µM

COc1cccc(N(C(=O)CCl)C(C(=O)NCCc2ccccc2)c2cccs2)c1 (stereo not drawn)
AC50: 1.29 µM

O=C(CCl)Oc1ccc2occ(C(=O)c3cccs3)c2c1
AC50: > 38 µM (inactive)

CC1=NN(c2ccccc2)C(=O)/C1=C\c1cc(C)n(-c2cccnc2)c1C
AC50: > 38 µM (inactive)

COc1ccc(OC)c(Nc2cc3ccccc3c(=O)[nH]2)c1
AC50: 1.92 µM

CSc1nnc(NC(=O)c2nc(S(=O)(=O)Cc3ccccc3)ncc2Cl)s1
AC50: > 38 µM (inactive)

Cc1[nH]nc2c1C(c1ccco1)C(C#N)=C(N)O2 (stereo not drawn)
AC50: > 38 µM (inactive)

COC(=O)Cc1c(C)[nH]n(-c2cc(Cl)cc(Cl)c2)c1=O
AC50: > 38 µM (inactive)

C=CCn1c(N)c(C(=O)Nc2cccc(C)c2)c2nc3ccccc3nc21
AC50: 14.4 µM

O=S(=O)(Cc1ccccc1)c1cnc2ccccc2n1
AC50: > 38 µM (inactive)

NNc1n[nH]c(=S)n1N
AC50: 32.3 µM

Cc1ccc(N2C(=O)C(Cl)=C(N3CCN(C)CC3)C2=O)c(C)c1
AC50: > 38 µM (inactive)

O=C(O)CC1S/C(=N/N=C/c2ccc(-c3ccc(Cl)cc3[N+](=O)[O-])o2)NC1=O (stereo not drawn)
AC50: 4.67 µM

O=c1c(Cl)nc2cc(Cl)ccc2n1CCNc1ncc(C(F)(F)F)cc1Cl
AC50: > 38 µM (inactive)

COc1ccc2nc3cccc(OC)c3nc2c1
AC50: 16.1 µM

Cc1ccc(S(=O)(=O)N(C(=O)c2ccncc2)c2ccc(OC(=O)c3ccncc3)c3ccccc23)c(C)c1
AC50: 16.9 µM

C=C(C)CNC(=S)N=Nc1c(O)[nH]c2ccc([N+](=O)[O-])cc12
AC50: > 38 µM (inactive)

COc1ccccc1NC1=C(N2CCCCC2)C(=O)c2ccccc2C1=O
AC50: 8.09 µM

CCCCCCOC(=O)c1ccc(OC(=O)c2cccnc2)cc1
AC50: > 38 µM (inactive)

[O-]C1=N/[N+](=C/c2ccccc2)CC1
AC50: > 38 µM (inactive)

Cc1cc(-c2[nH]nc3c2C(c2cccc(O)c2)C(C#N)=C(N)O3)c(C)s1 (stereo not drawn)
AC50: 28.8 µM

O=[N+]([O-])c1c(Nc2ccccn2)cc(Cl)c2nonc12
AC50: 1.76 µM

CC(C)Oc1cccc(C(=O)C2CCCN(C(=O)c3csnn3)C2)c1 (stereo not drawn)
AC50: > 38 µM (inactive)

COc1ccc(NC(=O)Nc2ccc(O)c3ccccc23)cc1
AC50: 39.3 µM

COc1cc(/C=C(\C#N)C(=O)Nc2ccc3c(c2)OCCO3)ccc1O
AC50: > 38 µM (inactive)

O=S(=O)(CCSc1nc2ccccc2s1)c1nc2ccccc2s1
AC50: 27.3 µM

Cc1ccc(-n2nnnc2CCl)cc1
AC50: 24 µM

COc1ccc(C(=O)c2c(C(F)(F)F)oc3c2C(=O)c2ccccc2C3=O)cc1
AC50: 0.93 µM

COc1cc(/C=C2/C(=O)N(c3ccc([N+](=O)[O-])cc3)N=C2N2CCOCC2)ccc1O
AC50: 31.5 µM

COc1ccc(N2C(=O)C(Cl)=C(N3CCN(Cc4ccccc4)CC3)C2=O)cc1
AC50: > 38 µM (inactive)

COc1ccc(C2=NN(c3ccccc3)C(=O)/C2=C\c2ccc(O)c(OC)c2)cc1
AC50: 3.62 µM

COc1cc(-n2nc(C)c3c2OC(N)=C(C#N)C3c2ccccc2)c(Cl)c(Br)c1O (stereo not drawn)
AC50: 16 µM

Oc1cnn(-c2ccccc2)c1
AC50: > 38 µM (inactive)

S=C(Nc1ccc2nsnc2c1)N1CCCCCC1
AC50: 9.37 µM

CCN(c1ccccc1)c1cc2ccccc2c(=O)[nH]1
AC50: > 38 µM (inactive)

COc1ccc(C(=O)n2nnc3ccccc32)cc1Br
AC50: > 38 µM (inactive)

O=C(NC1=C(Nc2ccc(F)cc2)C(=O)c2ccccc2C1=O)c1ccc(Cl)cc1
AC50: 13.6 µM

CC1=NN(c2ccccc2)C(=O)C1
AC50: 3.24 µM

CCOC(=O)C1=C(c2ccccc2)NC(N)=NC1c1ccc(OCc2ccc(Cl)cc2)c(OC)c1 (stereo not drawn)
AC50: 10.2 µM

Cc1ccc(S(=O)(=O)Oc2ccc(C(c3c(C)[nH][nH]c3=O)c3c(C)[nH][nH]c3=O)cc2)cc1
AC50: 2.22 µM

CC(C)(C)c1[nH]nc2c1C(Cc1ccccc1)C(C#N)=C(N)O2 (stereo not drawn)
AC50: > 38 µM (inactive)

Cc1ccc(SCC2=NNC(=O)C2)cc1
AC50: 31.5 µM

COc1ccccc1NC(=O)CSc1nc2c(sc3ccccc32)c(=O)n1CCN(C)C
AC50: > 38 µM (inactive)

COc1cc(/C=C2/SC(=S)NC2=O)ccc1OS(=O)(=O)c1ccc(C)cc1
AC50: 5.83 µM

O=C(NC(=C(Cl)Cl)S(=O)(=O)c1ccc(Cl)cc1)c1ccccc1
AC50: 4.78 µM

c1ccc2[nH]c3cc4ncnc4cc3nc2c1
AC50: 37.5 µM

Cc1cc(C)c(S(=O)(=O)Nc2cc(SCC(=O)O)c(O)c3ccccc23)cc1C
AC50: 2.58 µM

O=C(Cc1cc(=O)[nH][nH]1)N/N=C/C=C/c1ccccc1
AC50: 20.8 µM

CC(C)[C@H](NC(=O)Nc1ccc(Oc2ccccc2)cc1)C(=O)O
AC50: > 38 µM (inactive)

O=S(=O)(Nc1c(O)ccc2ccccc12)c1cccc2ccccc12
AC50: 26.8 µM

CCN(CC)C(=O)CSc1nnc2nnc3cc(OC)ccc3n12
AC50: > 38 µM (inactive)

COc1cc(/C=C2\C(=O)N(c3ccc(NC(C)=O)cc3)N=C2c2ccccc2)ccc1O
AC50: > 38 µM (inactive)

O=C(CSc1nnc(Cc2ccccc2)o1)Nc1cccc(F)c1
AC50: > 38 µM (inactive)

CCOC(=O)Cc1c(C)c2c(C)[nH]nc2oc1=O
AC50: > 38 µM (inactive)

CCOc1c(Br)cc(/C=C2\C(=O)N(CCC#N)N=C2C)cc1OC
AC50: 11.1 µM

COc1ccc(/C=C/C(=O)c2ccncc2)c2ccccc12
AC50: 18.6 µM

Cc1ccc(NC2=C(NC(=O)c3ccccc3)C(=O)c3ccccc3C2=O)cc1Cl
AC50: 7.45 µM

CCO/C=C1/C(=O)N(Cc2ccccc2)C(=O)c2ccccc21
AC50: > 38 µM (inactive)

Oc1ccc(/C=N/Nc2ccc(C(F)(F)F)cn2)c(O)c1
AC50: > 38 µM (inactive)

O=C1/C(=C\c2cccc(O)c2O)SC(=S)N1Cc1ccccc1
AC50: > 38 µM (inactive)

Cc1ccc(N(NC(=O)C(O)(c2ccccc2)c2ccccc2)C(=O)CCl)cc1
AC50: 1.57 µM

CC(C)=CCC1=C(OCC(=O)O)C(=O)c2ccccc2C1=O
AC50: 10.3 µM

O=C1C(Br)=Cc2cccc3cccc1c23
AC50: > 38 µM (inactive)

COc1cc2c(cc1OC)C(c1cc(Br)ccc1F)N(C(=O)CCl)CC2 (stereo not drawn)
AC50: 2.43 µM

CCCCc1ccc(NC(=O)CSCc2cc(=O)[nH][nH]2)cc1
AC50: 27.1 µM

O=C(COC(=O)C1CC(=O)N(Cc2ccco2)C1)c1ccc(OC(=O)c2ccco2)cc1 (stereo not drawn)
AC50: > 38 µM (inactive)

CC1=NN(c2ccc(Cl)cc2)C(=O)C1C(c1cccc(O)c1)c1c(C)[nH]n(-c2ccc(Cl)cc2)c1=O (stereo not drawn)
AC50: 7.91 µM

COc1cc(OC)cc(-c2nnc(Sc3ccc(C=O)cc3[N+](=O)[O-])o2)c1
AC50: 21.3 µM

CC1=CC2(O)OCCN(CCO)C2=CC1=O (stereo not drawn)
AC50: 13.5 µM

COc1ccc(/C=C2/C(=O)N(c3ccccc3)N=C2C)cc1
AC50: 5.27 µM

NC(=O)C1CCN(C2=C(Cl)C(=O)c3ccccc3C2=O)CC1
AC50: 1.97 µM

O=C(c1ccc(Cl)cc1)n1cnc2ccccc21
AC50: > 38 µM (inactive)

COC(=O)c1cc([N+](=O)[O-])c(-n2ccnc2)c([N+](=O)[O-])c1
AC50: > 38 µM (inactive)

Cc1cc(=O)n(-c2ccccc2Cl)[nH]1
AC50: 22.3 µM

COC(=O)Cc1[nH]nc2c1C(c1ccc(O)c(OC)c1)C(C#N)=C(N)O2 (stereo not drawn)
AC50: 28.4 µM

COC(=O)c1sc(-c2cccs2)cc1NC(=O)/C=C/C(=O)O
AC50: 35.9 µM

Cc1ccc(S(=O)(=O)N(C(=O)c2ccncc2)c2ccc(OC(=O)c3ccncc3)c3ccccc23)cc1
AC50: 4.13 µM

Cc1cccc(N(Cc2ccccc2)C(=O)CCl)c1
AC50: 2.06 µM

CC(=O)c1cccc2c(O)c(C3=Nc4ccccc4C3=O)[nH]c12
AC50: 34.6 µM
